Measurements reported in patent US8748457B2, “2-amino-2- [8-(dimethyl carbamoyl)- 8-aza- bicyclo [3.2.1] oct-3-yl]-exo- ethanoyl derivatives as potent DPP-IV inhibitors” (Lupin Limited, priority 2009, dated 2014).
Where a name gives a salt, the structure may show the parent alone. Read-outs that look alike come from different tables or passages of the source.

Legend:
human recombinant DPP-IV = target: T1, human recombinant DPP-IV (Homo sapiens, UniProt P27487); test: Inhibition of human recombinant DPP-IV (Gly-Pro-AMC fluorometric assay); type: biochemical
T1 construct: purchased R&D Systems, USA
Method: Inhibition of Human Recombinant DPP-IV
The proteolytic activity of human recombinant DPP-IV was determined by following the hydrolysis of Gly-Pro-7-amino-4-methylcoumarin (Gly-Pro-AMC) and the fluorometric quantitation of the liberated AMC. Assays were routinely carried out in 96-well flat-bottom black microwell plates. The reaction mixture (100 μl) contained 10 ng of human recombinant DPP-IV enzyme (produced in-house or procured from R&D Systems, USA) in the assay buffer (25 mM Tris-HCl, pH 7.4, 140 mM NaCl, 10 mM KCl and 0.1 mg/ml BSA) and 50 μM Gly-Pro-AMC. After incubation of assay plates at 30° C. for 30 min, the hydrolysis of Gly-Pro-AMC was monitored in a fluorescence microplate reader (Molecular Devices SpectraMax M5), with excitation and emission wavelengths set at 360 nm and 460 nm, respectively.
The inhibition of DPP-IV activity by test compounds was routinely performed by preincubating the enzyme with test compound (10 and 100 nM for primary screening and 8 concentrations from 0.1 to 1000 nM for the dose-response study) or vehicle (0.01% DMSO) for 15 min at 30° C., in a total volume of 90 μl. Test compounds were dissolved in DMSO at a concentration of 10 mM and serially diluted further in assay buffer. The enzyme reaction was initiated by the addition of Gly-Pro-AMC, followed by incubation of assay plates for 30 min at 30° C. and the liberated AMC was measured as described above. A known inhibitor of DPP-IV (positive control) was always included in the assay. Test compounds at various concentrations were always evaluated in duplicate, along with substrate blanks, vehicle controls and positive controls.
The results are expressed as percent inhibition of the enzyme activity relative to vehicle controls. Dose-response studies were conducted for those compounds exerting ≧50% inhibition of activity at 10 nM in primary screening. IC50, defined as the inhibitor concentration which caused a 50% decrease of the activity under assay conditions, was computed using GraphPad Prism software, version 5.0. […]

plasma DPP-IV = target: T2, plasma DPP-IV (Canis lupus familiaris, UniProt A0A8I3Q2I8); test: Measurement of plasma DPP-IV activity in Beagle dogs; type: in vivo; conditions: dog, male Beagle dogs, single oral dose 3 mg/kg p.o.
T2 construct: from tissue; host or cells: EDTA-plasma of male Beagle dogs after oral dosing (ex vivo)
Method: A. Measurement of Plasma DPP-IV Activity in Beagle Dogs
Overnight-fasted male animals were administered either vehicle or single oral dose of compound. Blood samples were collected prior to dosing and for 12 hours post dose into tubes containing EDTA. EDTA-plasma was separated and DPP-IV activity was measured using a fluorometric assay. Assays were carried out in 96-well flat-bottom black microwell plates. A typical reaction contained 25 μl plasma, 50 μl of 50 μM substrate (Gly-Pro-AMC) and 25 μl assay buffer (25 mM Tris-HCl, pH 7.4, 140 mM NaCl, 10 mM KCl and 1% BSA) in a total reaction volume of 100 μl. Plasma samples were incubated with the substrate for 30 min at 30° C., following which the fluorescence was measured in a microplate fluorescence reader (POLARstar Galaxy), with excitation and emission wavelengths set at 360 nm and 460 nm, respectively. Percent inhibition in plasma DPP-IV activity due to compounds was calculated by comparing with plasma from vehicle-treated animals.

T2 sequence (A0A8I3Q2I8 1-765): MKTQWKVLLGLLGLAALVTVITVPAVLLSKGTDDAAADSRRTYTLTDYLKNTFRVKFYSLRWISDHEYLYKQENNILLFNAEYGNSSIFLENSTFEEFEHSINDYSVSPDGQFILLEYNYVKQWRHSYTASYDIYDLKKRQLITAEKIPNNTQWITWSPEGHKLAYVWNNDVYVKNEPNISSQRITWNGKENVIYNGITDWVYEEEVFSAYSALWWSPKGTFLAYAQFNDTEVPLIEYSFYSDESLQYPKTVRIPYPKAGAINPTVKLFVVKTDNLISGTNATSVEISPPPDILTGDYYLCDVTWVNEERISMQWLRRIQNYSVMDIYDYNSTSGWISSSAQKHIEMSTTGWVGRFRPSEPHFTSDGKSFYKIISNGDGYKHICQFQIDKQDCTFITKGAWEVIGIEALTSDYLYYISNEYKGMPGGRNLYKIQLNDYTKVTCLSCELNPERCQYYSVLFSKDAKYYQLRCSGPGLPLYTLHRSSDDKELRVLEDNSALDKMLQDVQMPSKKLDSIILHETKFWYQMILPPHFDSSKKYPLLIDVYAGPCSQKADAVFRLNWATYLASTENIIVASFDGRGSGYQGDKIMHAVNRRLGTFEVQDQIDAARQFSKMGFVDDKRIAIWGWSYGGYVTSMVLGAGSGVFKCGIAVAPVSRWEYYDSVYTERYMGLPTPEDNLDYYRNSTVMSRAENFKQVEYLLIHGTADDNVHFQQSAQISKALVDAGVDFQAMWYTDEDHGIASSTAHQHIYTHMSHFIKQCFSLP
T1 sequence (P27487 whole entry): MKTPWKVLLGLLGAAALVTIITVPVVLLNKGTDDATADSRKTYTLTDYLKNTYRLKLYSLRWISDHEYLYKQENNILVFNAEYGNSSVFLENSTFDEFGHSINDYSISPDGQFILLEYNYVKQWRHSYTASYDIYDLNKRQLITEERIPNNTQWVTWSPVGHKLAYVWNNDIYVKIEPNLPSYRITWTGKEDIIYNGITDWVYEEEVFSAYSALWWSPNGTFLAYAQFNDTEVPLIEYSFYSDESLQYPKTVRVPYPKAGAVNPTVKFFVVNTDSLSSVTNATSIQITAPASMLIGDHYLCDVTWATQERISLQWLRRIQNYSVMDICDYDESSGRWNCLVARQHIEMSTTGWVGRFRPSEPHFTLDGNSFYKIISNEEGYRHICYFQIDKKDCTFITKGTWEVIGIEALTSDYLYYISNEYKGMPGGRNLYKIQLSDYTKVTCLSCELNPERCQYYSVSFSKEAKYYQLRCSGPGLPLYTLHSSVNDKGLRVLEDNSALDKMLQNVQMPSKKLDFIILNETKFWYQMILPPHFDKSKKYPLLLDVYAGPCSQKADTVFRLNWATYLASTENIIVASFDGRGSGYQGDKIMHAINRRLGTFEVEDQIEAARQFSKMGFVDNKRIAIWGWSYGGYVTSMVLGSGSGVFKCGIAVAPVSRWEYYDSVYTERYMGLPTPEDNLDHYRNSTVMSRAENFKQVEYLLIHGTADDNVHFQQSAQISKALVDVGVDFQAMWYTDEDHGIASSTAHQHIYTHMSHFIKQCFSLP

Q: With `C#C[C@H]1CC[C@@H](C#N)N1C(=O)[C@@H](N)C1CC2CCC(C1)N2C(=O)N(C)C` (stereo partly drawn) [Compound 2, (2S,5R)-1-{(2S)-2-Amino-2-[8-(dimethylcarbamoyl)-8-aza-bicyclo[3.2.1]oct-3-yl]-exo-ethanoyl}-5-ethynyl-pyrrolidin-2-carbonitrile trifluoro acetic acid salt] as the molecule, how does the IC50 (human recombinant DPP-IV; 50 μM Gly-Pro-AMC, 15 min preincubation, 30 min at 30° C.) read?
A: 3.3 nM

Q: What about the inhibition at 3 mg/kg (plasma DPP-IV; 0.5 h post dose, read-out: Plasma DPP-IV Inhibition (%) 0.5 h) of the same molecule?
A: 91%

Q: And the inhibition at 3 mg/kg (plasma DPP-IV; 1 h post dose, read-out: Plasma DPP-IV Inhibition (%) 1 h)?
A: 85%

Q: What about the inhibition at 3 mg/kg (plasma DPP-IV; 2 h post dose, read-out: Plasma DPP-IV Inhibition (%) 2 h) of the same molecule?
A: 92%

Q: What about the inhibition at 3 mg/kg (plasma DPP-IV; 3 h post dose, read-out: Plasma DPP-IV Inhibition (%) 3 h) of the same molecule?
A: 90%

Q: What about the inhibition at 3 mg/kg (plasma DPP-IV; 4 h post dose, read-out: Plasma DPP-IV Inhibition (%) 4 h) of the same molecule?
A: 85%

Q: What about the inhibition at 3 mg/kg (plasma DPP-IV; 6 h post dose, read-out: Plasma DPP-IV Inhibition (%) 6 h) of the same molecule?
A: 72%

Q: What about the inhibition at 3 mg/kg (plasma DPP-IV; 8 h post dose, read-out: Plasma DPP-IV Inhibition (%) 8 h) of the same molecule?
A: 68%

Q: What about the inhibition at 3 mg/kg (plasma DPP-IV; 10 h post dose, read-out: Plasma DPP-IV Inhibition (%) 10 h) of the same molecule?
A: 67%

Q: What about the inhibition at 3 mg/kg (plasma DPP-IV; 12 h post dose, read-out: Plasma DPP-IV Inhibition (%) 12 h) of the same molecule?
A: 62%

Q: Which melting point does the source give for `CN(C)C(=O)N1C2CCC1CC([C@H](N)C(=O)N1[C@H](C#N)C[C@@H]3C[C@@H]31)C2` (stereo partly drawn) (as salt: salt) [Compound 1, (1S,3S,5S)-2-{(2S)-2-Amino-2-[8-(dimethylcarbamoyl)-8-aza-bicyclo[3.2.1]-oct-3-yl]-exo-ethanoyl}-2-azabicyclo[3.1.0]-hexane-3-carbonitrile trifluoro acetic acid salt] here?
A: 178 to 180 °C

Q: Which melting point does the source give for `C#C[C@H]1CC[C@@H](C#N)N1C(=O)[C@@H](N)C1CC2CCC(C1)N2C(=O)N(C)C` (stereo partly drawn) (as salt: salt) [Compound 2, (2S,5R)-1-{(2S)-2-Amino-2-[8-(dimethylcarbamoyl)-8-aza-bicyclo[3.2.1]oct-3-yl]-exo-ethanoyl}-5-ethynyl-pyrrolidin-2-carbonitrile trifluoro acetic acid salt] here?
A: 165 to 167 °C

Q: With `CN(C)C(=O)N1C2CCC1CC([C@H](N)C(=O)N1[C@H](C#N)C[C@@H]3C[C@@H]31)C2` (stereo partly drawn) [Compound 1, (1S,3S,5S)-2-{(2S)-2-Amino-2-[8-(dimethylcarbamoyl)-8-aza-bicyclo[3.2.1]-oct-3-yl]-exo-ethanoyl}-2-azabicyclo[3.1.0]-hexane-3-carbonitrile trifluoro acetic acid salt] as the molecule, how does the inhibition at 0.01 µM (human recombinant DPP-IV; compound at 10 nM (primary screening)) read?
A: 69%

Q: What about the inhibition at 0.1 µM (human recombinant DPP-IV; compound at 100 nM (primary screening)) of the same molecule?
A: 94.8%
